Laboratory results from patent US5990137A, “Method of inhibiting NADPH oxidase” (Idun Pharmaceuticals, Inc., priority 1998, dated 1999).

Experiments:
[1] = system: isolated neutrophils (opsonized zymosan-stimulated oxidative burst); assay: Measurement of chemiluminescence of isolated neutrophils (neutrophil burst, Lucigenin); assay type: cell-based; settings: for IC50 / inhibition at 50 µM: Neutrophil; for inhibition at 50 µM: percent inhibition at 50 μM, single concentration, read-out: Neutrophil Burst Screen Value (% @ 50 μM)
Experimental: Whole blood (150 ml) was anticoagulated with Acid Citrate Dextrose (ACD) using a ratio of 1:5 ACD to blood.
All steps are to be performed using polypropylene plastic ware.
a. Whole blood (60 ml) was added to each of three 100 ml polypropylene graduated cylinders containing 30 ml of […]. The cylinders were covered securely with Parafilm. The blood was allowed to sediment for approximately 1 hour at room temperature.
b. The turbid straw-colored layer was harvested from the top of the cylinders into 50 ml conical polypropylene tubes. The white blood cells were pelleted by centrifugation at 240×g (Sorvall at 1200 rpm) for 12 min. at 4° C. with the brake on low.
c. The supernatant was removed by aspiration and the pooled pellet resuspended in 4-50 ml cold PBS (w/o Ca, Mg). It was then centrifuged at 240×g (Sorvall at 1200 rpm) for 6 min. at 4° C. with the brake on high.
a. The supernatant was aspirated and the pellet resuspended in 12 ml of cold cell culture-grade water. The pellet was titrated gently with a pipet for exactly 30 seconds then 4 ml of cold 0.6 M KCl was added. It was then QSed to 50 ml with cold PBS (w/o Ca, Mg) and centrifuged at 300×g (Sorvall TY 6000D at 1400 rpm) for 6 min. at 4° C. with the brake on high.
b. Step 2.a. was repeated once more.
a. The supernatant was aspirated and the cells were resuspended in 2.5 ml cold PBS (w/o Ca, Mg). The cell suspension was carefully layered over 3 ml Ficoll-Hypaque in a 15 ml polypropylene conical tube. It was then centrifuged at 400×g (Sorvall at 1900 rpm) for 30 min. at 4° C. with the brake on low.
b. Aspiration occurred down to the neutrophil pellet. The pellet was resuspended fin cold PBS (w/o Ca, Mg) and transferred to a 50 ml conical tube. It was then QSed to 50 ml with cold PBS (w/o Ca, Mg) and centrifuged at 300×g (Sorvall at 1400 rpm) for 6 min. at 4° C. with the brake on high.
d. The supernatant was aspirated and the pellet resuspended in 50 ml cold PBS (w/o Ca, Mg) and centrifuged at 300×g (Sorvall at 1400 rpm) for 6 min. with the brake on high.
e. The supernatant was aspirated and the neutrophil pellet resuspended in 4.0 ml cold PBS (w/o Ca, Mg). It was kept on ice. Trypan blue (10 μl) was diluted (1:40) and the cells were counted using a hemacytometer. The cell number and viability by Trypan […] exclusion were determined and the results recorded. The cells were diluted to 5.0×10^6 cells/ml with cold PBS-G (with Ca, Mg) prior to plating for the assay.
2. […] The suspension was centrifuged and the particles resuspended in 7 ml of PBS-G (with Ca, Mg)(18 mg/ml). It was stored on ice until used (briefly vortexed prior to pipetting).
4. PBS-G (10 μl) (with Ca, Mg) was added to the wells in a white 96 well plate.
6. The compound dilutions (10 μl) were added to the appropriate wells.
7. The cell prep was diluted to 5.0×10^6 cells/ml with PBS-G (with Ca, Mg) in a separate multipipette trough.
8. The neutrophil suspension (20 μl) was added to the appropriate wells.
9. The plate was incubated at 37° C. for three minutes.
10. Zymosan (10 μl of 18 mg/ml) was added to the appropriate wells.
11. The plate was read on the luminometer (Labsystems Luminoskan, Needham Heights, Mass.) for 14 min. at 37° C. on the kinetic mode and the results recorded using the software DeltaSoft.
12. The plate data was exported into Excel to determine percent of control and derive the means and standard deviations for the data. The IC50 was determined graphically from the data and plotted using SigmaPlot. For cases where one concentration (50 μM) was tested, percent inhibition was compared to that seen with 50 μM apocynin.
13. The results are set forth below in Table 1 as "Neutrophil Burst IC50 (Lucigenin)". The results for 50 μM inhibition in the single assay are reported as "Neutrophil Burst Screen Value (% @ 50 μM)".

Xanthine oxidase = molecular target: T1, Xanthine oxidase (Bos taurus, UniProt P80457); assay: Xanthine oxidase assay (superoxide by hypoxanthine/xanthine oxidase, Lucigenin); assay type: biochemical; settings: hypoxanthine 150 μM, buttermilk xanthine oxidase, 37° C.
T1 construct: purchased Sigma x-1875; host or cells: buttermilk

Jurkat cells = assay: Cytotoxicity assay employing Jurkat cells (MTT); assay type: cell-based; settings: Jurkat clone E6-1, MTT, 37° C. overnight
Experimental: This Assay was performed as set forth in Hansen et al., Journal of Immunological Methods, 119:203-210 (19930; Mosmann, Journal of Immunological Methods, 65:55-63 (1983); and Slater et al., Biochem. Ciophys. Acta, 77:383 (1963); except as noted below.
Compounds from the following Examples were tested for cytotoxicity using MTT (i.e., 3-[4,5-Dimethylthiazol-2-yl]-2,5-diphenyltetrazolium bromide; Thiazolyl Blue (Sigma, St. Louis, Mo.)).
MTT was dissolved in basal culture media at a concentration of 5 mg/ml. If necessary, it was briefly warmed at 37° C. to fully dissolve, passed through a sterile filter, and aliquoted and stored at -20° C. until use.
The Extraction Buffer used was a solution composed of 20% SDS, 2.5% Acetic Acid (80% 6 stock solution), 2.5% 1N Hcl, 50% Dimethylformamide/50% dissolved in distilled water, SDS was dissolved into buffer components with gentle heating and stirring and the resultant solution was filtered and stored until use.
The MTT solution was added in an amount equal to 10% of the culture volume to each well in a 96-well plate containing 100,000 Jurkat cells/well.
The wells were then incubated for 0.5 to 2 hours in standard culture conditions. A volume of extraction buffer equal to the culture volume was added. The 96-well plate was then sealed. The formazan crystals were allowed to extract at 37° C. for four hours. The plate was read on a spectrophotometer [Spectramax 250, Molecular Devices, Sunnyvale, Calif.] at an absorbance wavelength of 560 nm. (The background absorbance measured at 650 nm was subtracted from the value measured at 560 nm.)
The Jurkat cells (Jurkat clone E6-1) were grown using standard conditions supplied by ATCC (American Type Culture Collection--Rockville, Md.).
The compounds diluted in medium (RPMI 1640 plus 10% fetal bovine serum) stock solution of 100 μM, then this stock solution was further diluted 3-fold before testing in the instant assay.
2-Hydroxy-3-methoxy-E-nitrostyrene tested at 100 μM as death control cells, incubated under the above conditions at 37° C. overnight.
The Extraction Buffer (100 μl) was added to each well and the resultant suspension was incubated 4 hours at 37° C.
The results from this procedure are set forth above in Table 1 in the column marked "Cytotox (MTT/Jurkat)". […] Toxicity was rated "3" if dead cells and >50% reduction in MTT absorbance at 1 μM test compound.

neutrophils = assay: Specificity: chemotaxis of neutrophils activated by f-Met-Leu-Phe; assay type: cell-based; settings: 50 μM
Experimental: (§1) To assess specificity of action, the title compound (hereinafter "Azine") was tested for its ability to inhibit other functions of stimulated neutrophils and monocytes. The procedure followed was set forth in Mrowietz et al., British Journal of Dermatology, 127:382-386 (1992); Snyderman, Ralph, Methods for Studying Mononuclear Phagocytes, ed. Adams, Edelson, and Koren, New York, Academic Press, pp. 535-547 (1981); Sozzani et al., The Journal of Immunology, Oct. 1, 1991, pp. 2215-2221; Zigmond et al., The Journal of Experimental Medicine, 137:387 (1973); Wahl et al., Cell Immunol., 85:373 (1984); Wahl et al., Current Protocols in Immunology, ed. Coligan, Kruisbeek, Margulies, Shevach, and Strober, p. 7.6.1 (1991); Hogquist et al., J. Immunol, 147:2181 (1991). The Azine (50 μM) had no effect on chemotaxis of neutrophils activated by the chemotactic peptide f-Met-Leu-Phe.

[2] = system: monocytes (IL-1 secretion); assay: Specificity: secretion of IL-1 by monocytes; assay type: cell-based; settings: 50 μM; LPS stimulated or unstimulated monocytes
Experimental: as §1

[3] = system: monocytes (TNF secretion); assay: Specificity: secretion of TNF by monocytes; assay type: cell-based; settings: 50 μM; LPS stimulated or unstimulated monocytes
Experimental: as §1

[4] = 14 min, opsonized zymosan, lucigenin, 37° C.

T1 sequence (P80457 whole entry): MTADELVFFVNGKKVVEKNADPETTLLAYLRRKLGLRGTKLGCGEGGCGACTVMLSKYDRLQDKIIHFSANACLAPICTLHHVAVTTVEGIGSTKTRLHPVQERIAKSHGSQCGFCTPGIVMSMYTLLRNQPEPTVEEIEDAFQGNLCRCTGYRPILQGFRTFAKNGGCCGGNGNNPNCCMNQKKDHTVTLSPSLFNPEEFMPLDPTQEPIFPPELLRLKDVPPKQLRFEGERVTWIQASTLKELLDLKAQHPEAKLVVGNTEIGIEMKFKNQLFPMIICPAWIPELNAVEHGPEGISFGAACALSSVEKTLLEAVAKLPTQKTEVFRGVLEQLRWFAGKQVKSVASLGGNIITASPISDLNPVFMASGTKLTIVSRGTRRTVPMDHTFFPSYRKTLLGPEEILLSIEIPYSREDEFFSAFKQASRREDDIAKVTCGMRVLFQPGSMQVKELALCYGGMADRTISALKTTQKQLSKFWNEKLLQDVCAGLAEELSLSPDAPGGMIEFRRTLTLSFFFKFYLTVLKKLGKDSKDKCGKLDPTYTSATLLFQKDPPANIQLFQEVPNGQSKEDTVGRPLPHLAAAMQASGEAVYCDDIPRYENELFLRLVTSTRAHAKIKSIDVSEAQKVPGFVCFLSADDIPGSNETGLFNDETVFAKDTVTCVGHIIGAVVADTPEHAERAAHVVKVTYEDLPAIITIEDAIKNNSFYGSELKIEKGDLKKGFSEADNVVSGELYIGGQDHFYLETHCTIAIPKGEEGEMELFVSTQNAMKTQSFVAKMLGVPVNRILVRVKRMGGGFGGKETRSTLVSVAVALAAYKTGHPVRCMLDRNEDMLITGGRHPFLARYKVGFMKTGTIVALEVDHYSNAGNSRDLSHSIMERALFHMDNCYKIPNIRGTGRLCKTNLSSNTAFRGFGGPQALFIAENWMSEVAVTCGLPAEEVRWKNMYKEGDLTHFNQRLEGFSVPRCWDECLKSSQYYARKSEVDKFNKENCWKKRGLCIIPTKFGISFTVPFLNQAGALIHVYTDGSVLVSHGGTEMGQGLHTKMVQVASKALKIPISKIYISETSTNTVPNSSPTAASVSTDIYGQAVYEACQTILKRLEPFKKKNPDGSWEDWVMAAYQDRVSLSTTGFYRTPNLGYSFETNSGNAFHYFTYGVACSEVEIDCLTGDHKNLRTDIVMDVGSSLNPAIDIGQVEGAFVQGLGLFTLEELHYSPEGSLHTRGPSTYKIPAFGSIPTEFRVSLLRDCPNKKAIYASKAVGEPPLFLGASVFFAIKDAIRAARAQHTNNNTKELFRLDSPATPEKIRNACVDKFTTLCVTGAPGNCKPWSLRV

Row | SMILES | IC50 [1, 4] [µM] | Xanthine Oxidase Inhibition IC50 (Integral) (Xanthine oxidase) | Cytotox (MTT/Jurkat) (Jurkat cells) | inhibition at 50 µM [1] [%] | Neutrophil Burst IC50 (Lucigenin) ([1]; opsonized zymosan, lucigenin, 37° C., 14 min) | effect on chemotaxis of neutrophils (neutrophils) | inhibition of secretion of IL-1 [2] | inhibition of secretion of TNF [3]
1 | COc1ccc(N=Cc2ccc(O)c(OC)c2)cc1 [Example 17, N-(3-Methoxy-4-Hydroxybenzylidene)-p-Methoxyaniline] | 3.1 | No Effect | 0 |  |  |  |  | 
2 | COc1cccc(/C=N/N=C/c2cccc(OC)c2O)c1O [A, Bis[3-methoxy-2-hydroxybenzaldehyde]trans,trans-azine] |  | No Effect | 0 | 1.1 | No Effect |  |  | 
3 | COc1cc(/C=N/N=C/c2ccc(O)c(OC)c2)ccc1O [C, Bis[4-hydroxy-3-methoxybenzaldehyde]-trans,trans-azine] | 4.9 | No Effect | 0 | 85.6 |  | no effect | did not inhibit | did not inhibit
4 | COc1cc(/C(C)=N/N=C(\C)c2ccc(O)c(OC)c2)ccc1O [Example 7, Bis[4-Hydroxy-3-Methoxyacetophenone]trans,trans-Azine] | 33.1 | No Effect | 1 (dead cells and >50% reduction in MTT absorbance were observed at 100 μM of the test compound) |  |  |  |  | 
